Measured values: paper PMC12316891, “A bottom-up approach to find lead compounds in expansive chemical spaces” (Communications Chemistry, 2025)

Experiments:
BRD4 (BD1) [1] = molecular target: T1, BRD4 (BD1) (Homo sapiens, UniProt O60885); conditions: advanced BRD4 (BD1) drug; cited from earlier work
T1 construct: A pET28 plasmid containing residues 44–168 of BRD4 (BD1), a 6xHis tag, a TEV protease cleavage site; 6xHis (N, cleaved yes); made in house; host or cells: E. coli Rosetta (D3)

His6-BRD4 (BD1) = molecular target: T2, His6-BRD4 (BD1) (Homo sapiens, UniProt O60885); experiment: Surface plasmon resonance (SPR) single-dose screening; assay type: binding; set-up: key to SPR RESULT: Positive: compounds were considered as SPR hits also when their average signal was further than two standard deviations apart from the average signal of the blank samples (1% DMSO); conditions: for RUs at [10 µM]: SPR, compound 10 µM, 1% DMSO, n = 2, decimal comma; for SPR RESULT: single dose 10 µM, n = 2
T2 construct: A pET28 plasmid containing residues 44–168 of BRD4 (BD1), a 6xHis tag, a TEV protease cleavage site; made in house; host or cells: E. coli Rosetta (D3)

BRD4 (BD1) [2] = molecular target: T1, BRD4 (BD1); experiment: Competitive HTRF TR-FRET binding assay (displacement of acetylated histone H4 peptide); conditions: for TR-FRET IC50 (nM) / IC50: 16-point titration 0.1 nM to 10 µM, n = 2, Negative = curve could not be fitted to a sigmoidal curve; for IC50: read-out: TR-FRET IC50; for IC50 by HTRF TR-FRET, range in words: potency range or dose-response behaviour
Method: To further quantitatively characterize the DSF/SPR hits compounds obtained in the single-dose screenings, we selected HTRF TR-FRET. Specifically, we employed a competitive HTRF TR-FRET experiment to measure the compound’s capacity to displace an acetylated peptide from the binding site of BRD4 (BD1). For each molecule, a 16-point concentration curve was titrated against the peptide-BRD (BD1) complex and incubated for 1.5 h. A compound was considered a positive binder if we could fit its titration curve to a sigmoidal curve to determine its IC50. […] Compound screening was carried out in 384-well, white, round-bottom, small-volume plates (CORNING) in a final volume of 20 µL of 50 mM HEPES (pH 7.4), 50 mM NaCl, 400 mM KF, 0.5 mM CHAPS, and 0.05% BSA. […] Then, the labeled anti-His6-XL665 antibody (CisBio) (10 nM) was added to the mixture and incubated for 15 min, before the Eu3+ cryptate-conjugated streptavidin (2 nM) (CisBio) was added and incubated for 15 min. All incubations were performed at room temperature. […] Titration of (+)−JQ1 was used as a positive control for each experiment.

BRD4 (BD1) [3] = molecular target: T1, BRD4 (BD1); experiment: Differential scanning fluorimetry (DSF) single-dose thermal shift screening; assay type: binding; conditions: DSF, compound 10 µM, BRD4 (BD1) 2 µM, n = 3, decimal comma; read-out: ΔTm ºC at [10 µM]

Compound | Ki (BRD4 (BD1) [1]) [µM] | RUs at [10 µM] (His6-BRD4 (BD1)) | TR-FRET IC50 (nM) (BRD4 (BD1) [2]) | ΔTm at 10 µM (BRD4 (BD1) [3]) [°C] | SPR RESULT (His6-BRD4 (BD1)) | IC50 (BRD4 (BD1) [2]) [µM] | IC50 by HTRF TR-FRET, range in words (BRD4 (BD1) [2])
CCS(=O)(=O)Nc1ccc(Oc2ccc(F)cc2F)c(-c2cn(C)c(=O)c3[nH]ccc23)c1 [Compound 1, CCS(=O)(=O)NC1=CC(=C(C=C1)OC2=C(C=C(C=C2)F)F)C3=CN(C(=O)C4=C3C=CN4)C, reference compound] | 0.011 | 116,86 ± 26,64 RUs |  |  |  |  | 
Cc1nnc(NC(=O)C2CCCN(C(=O)c3ccc(Br)c(F)c3)C2)s1 (stereo not shown) [Compound 79, CC1=NN=C(NC(=O)C2CCCN(C2)C(=O)C=3C=CC(Br)=C(F)C3)S1] |  | 33,58 ± 5,55 RUs | Negative | 1.21 | Positive |  | 
Cc1nnc(NC(=O)CNC(c2ccc(Cl)cc2)c2ccccc2C(C)C)s1 (stereo not shown) [Compound 80, CC(C)C=1C=CC=CC1C(NCC(=O)NC2=NN=C(C)S2)C=3C=CC(Cl)=CC3] |  | 29,64 ± 5,36 RUs |  | -0.49 | Positive | 0.0236 | 
Cc1nc(=O)c(CCC(=O)NC2CC(O)(Cn3cc(-c4cnn(C)c4C)nn3)C2)c[nH]1 (stereo not shown) [Compound 81, CC1=C(C=NN1C)C2=CN(CC3(O)CC(C3)NC(=O)CCC4=CNC(C)=NC4=O)N=N2] |  | 11,5 ± 1,85 RUs |  | -0.15 | Positive | 0.0264 | 
CCOc1ccc(-c2cn(C3CC(NC(=O)c4cc(C)nc5ncnn45)C3)nn2)cc1F (stereo not shown) [Compound 82, CCOC=1C=CC(=CC1F)C2=CN(N=N2)C3CC(C3)NC(=O)C4=CC(C)=NC5=NC=NN45] |  | 38,3 ± 6,87 RUs |  | -0.24 | Positive | 0.0297 | 
Cc1ncc(C(=O)NCCn2cc(Cn3c(C)nc4ccccc43)nn2)c(=O)[nH]1 [Compound 83, CC1=NC=2C=CC=CC2N1CC3=CN(CCNC(=O)C4=CN=C(C)NC4=O)N=N3] |  | 14,05 ± 12,27 RUs |  | 0.78 | Negative | 0.325 | 
O=C(Nc1cccc(C(=O)N2CCC(Cn3cc(C4(O)CCOCC4)nn3)CC2)c1)c1ccco1 [Compound 84, OC1(CCOCC1)C2=CN(CC3CCN(CC3)C(=O)C=4C=CC=C(NC(=O)C5=CC=CO5)C4)N=N2] |  | 17,5 ± 1,9 RUs |  | 1.16 | Positive | 0.0181 | 
Cc1nc(=O)c(CCC(=O)N2CC3(CCCC3)c3ccccc32)c[nH]1 [Compound 85, CC1=NC(=O)C(CCC(=O)N2CC3(CCCC3)C=4C=CC=CC24)=CN1] |  | 24,26 ± 6,71 RUs |  | 1.18 | Positive | 0.018 | 
CN(Cc1cccc(OC(F)F)c1)C(=O)C(=O)NC1CCN(C(=O)c2ccco2)c2ccccc21 (stereo not shown) [Compound 86, CN(CC=1C=CC=C(OC(F)F)C1)C(=O)C(=O)NC2CCN(C(=O)C3=CC=CO3)C=4C=CC=CC24] |  | 56,94 ± 25,46 RUs | Negative | 0.94 | Negative |  | 
COC(=O)c1cc(CNC(=O)C=Cc2cnc(C)[nH]c2=O)ccc1Cl [Compound 87, COC(=O)C=1C=C(CNC(=O)C=CC2=CN=C(C)NC2=O)C=CC1Cl] |  | 15,1 ± 2,46 RUs |  | 2.3 | Positive | 0.0111 | low nM
Cc1nnc(NC(=O)CNC(c2ccc(F)cc2)c2cnn(C)c2)s1 (stereo not shown) [Compound 88, CC1=NN=C(NC(=O)CNC(C=2C=NN(C)C2)C=3C=CC(F)=CC3)S1] |  | 4,11 ± 7,31 RUs |  | 0.54 | Negative | 2.26 | 
CC(NC(=O)CC1(C)CCCO1)C1(O)CN(C(=O)c2nsnc2O)C1 (stereo not shown) [Compound 89, CC(NC(=O)CC1(C)CCCO1)C2(O)CN(C2)C(=O)C3=NSN=C3O] |  | -1,39 ± 0,54 RUs |  | 0.19 | Negative | 0.155 | 
Cc1nonc1CC(=O)N1CC(CC(C)NC(=O)c2nsnc2O)C1 (stereo not shown) [Compound 90, CC(CC1CN(C1)C(=O)CC2=NON=C2C)NC(=O)C3=NSN=C3O] |  | 11,06 ± 3,73 RUs |  | 0.43 | Negative | 0.213 | 
Cc1cn2cc(C(=O)NC(C)CC(C)NC(=O)c3ccsn3)sc2n1 (stereo not shown) [Compound 91, CC(CC(C)NC(=O)C1=CN2C=C(C)N=C2S1)NC(=O)C=3C=CSN3] |  | 8,08 ± 2,94 RUs |  | 0.44 | Negative | 0.579 | 
COC(=O)C1(NCC(=O)Nc2nnc(C)s2)CC(C)(C)OC(C)(C)C1 [Compound 92, COC(=O)C1(CC(C)(C)OC(C)(C)C1)NCC(=O)NC2=NN=C(C)S2] |  | 8,96 ± 1,15 RUs |  | 1.04 | Negative | 0.622 | 
Cc1cc(C)n2nc(CNC(=NCCCN3CCOCC3)N3CCC(NC(=O)CBr)C3)nc2n1 (stereo not shown) [Compound 93, BrCC(=O)NC1CCN(C1)C(=NCCCN2CCOCC2)NCC=3N=C4N=C(C)C=C(C)N4N3] |  | 20,44 ± 23,06 RUs |  | -0.58 | Negative | 0.47 | 
Cc1ccc(-n2c(C)nnc2SCC(=O)N2CCOCCC23COC3)cc1 [Compound 94, CC1=NN=C(SCC(=O)N2CCOCCC32COC3)N1C=4C=CC(C)=CC4] |  | 3,87 ± 1,96 RUs |  | 1.19 | Negative | 0.0279 | low nM
CCn1nnc2cc(C(=O)N3C[C@@H](OC(C)=O)[C@@H](n4cc(CN5CCC(O)CC5)nn4)C3)ccc21 [Compound 95, CCN1N=NC=2C=C(C=CC12)C(=O)N3C[C@@H](OC(=O)C)[C@H](C3)N4C=C(CN5CCC(O)CC5)N=N4] |  | 14,42 ± 2,9 RUs | Negative | 0.19 | Positive |  | 
CCCc1c(C(=O)N(C)C2CN(C(=O)c3cc(C)n[nH]3)C2)[nH]c(C)c1C(C)=O [Compound 96, CCCC1=C(NC(C)=C1C(=O)C)C(=O)N(C)C2CN(C2)C(=O)C3=CC(C)=NN3] |  | 16,1 ± 0,61 RUs |  | 2.24 | Positive | 0.211 | 
